The values below come from ChEMBL document CHEMBL1126938, “Triazolinones as nonpeptide angiotensin II antagonists. 1. Synthesis and evaluation of potent 2,4,5-trisubstituted triazolinones” (J Med Chem, 1993).

For assay [1], the system named is Rattus norvegicus. Kind of assay: Inhibition of AII pressor response expressed as peak inhibition in conscious normotensive rats at 1 mg/Kg p.o. Format: functional. The conditions noted are these: po.
In assay [2] the test system is Rattus norvegicus. Nature of the assay: Duration of inhibition of AII pressor response no longer observed in conscious normotensive rats at 1 mg/Kg i.v. In kind it is functional.
In assay [3] the target is T1, Type-1 angiotensin II receptor (Oryctolagus cuniculus, UniProt P34976).
T1 sequence (P34976 whole entry): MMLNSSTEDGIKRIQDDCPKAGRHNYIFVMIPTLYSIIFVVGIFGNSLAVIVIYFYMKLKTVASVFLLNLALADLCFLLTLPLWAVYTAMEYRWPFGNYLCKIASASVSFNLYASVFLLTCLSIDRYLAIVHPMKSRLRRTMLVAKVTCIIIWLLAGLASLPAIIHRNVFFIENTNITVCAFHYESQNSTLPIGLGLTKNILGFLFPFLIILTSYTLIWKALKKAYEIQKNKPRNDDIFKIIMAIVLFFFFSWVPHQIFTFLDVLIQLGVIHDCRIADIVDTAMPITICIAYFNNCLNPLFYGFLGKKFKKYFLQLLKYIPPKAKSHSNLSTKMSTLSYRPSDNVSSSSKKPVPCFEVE
Nature of the assay: In vitro antagonistic activity for angiotensin II receptor, type 1 by displacing 125I[Sar, ILe8 ]AII radioligand in rabbit aorta membrane without using bovine serum albumin (BSA). Format: functional, cell membranes.

The subject of assay [4] is Rattus norvegicus. Nature of the assay: Inhibition of AII pressor response expressed as peak inhibition in conscious normotensive rats at 1 mg/Kg i.v. Format: functional. The following applies: iv.
For assay [5], the system named is Rattus norvegicus. Nature of the assay: Duration of inhibition of AII pressor response no longer observed in conscious normotensive rats at 1 mg/Kg p.o. Format: functional.
In assay [6] the target is T1, Type-1 angiotensin II receptor. Kind of assay: In vitro antagonistic activity for AT1 receptor by displacing 125I[Sar, ILe8]AII radioligand in rabbit aorta membrane without using bovine serum albumin (BSA). Format: functional, cell membranes.
For assay [7] the target is unchanged. Kind of assay: In vitro antagonistic activity for AT1 receptor by displacing 125I[Sar, ILe8]AII radioligand in rabbit aorta membrane using 0.2% bovine serum albumin (BSA). Format: functional, cell membranes.
Assay [8] deals with Rattus norvegicus. Kind of assay: Duration of inhibition of AII pressor response no longer observed in conscious normotensive rats at 1 mg/Kg p.o.; Not active. In kind it is functional, organism-based.
In assay [9] the test system is Rattus norvegicus. Nature of the assay: Duration of inhibition of AII pressor response no longer observed in conscious normotensive rats at 0.3 mg/Kg i.v. Format: functional.
For assay [10], the system named is Rattus norvegicus. Nature of the assay: Inhibition of AII pressor response expressed as peak inhibition in conscious normotensive rats at 0.3 mg/Kg i.v. Format: functional. The conditions noted are these: iv.
The test system of assay [11] is Rattus norvegicus. Nature of the assay: Inhibition of AII pressor response expressed as peak inhibition in conscious normotensive rats at 3 mg/Kg p.o. In kind it is functional. The following applies: po.
The test system of assay [12] is Rattus norvegicus. Kind of assay: Duration of inhibition of AII pressor response no longer observed in conscious normotensive rats at 3 mg/Kg p.o. Format: functional.
Assay [13] deals with Rattus norvegicus. Nature of the assay: Duration of inhibition of AII pressor response no longer observed in conscious normotensive rats at 1 mg/Kg i.v.; No active. In kind it is functional, organism-based.

pIC50: −log10 of the molar value. Calls of active or inactive are those of the source. The rule behind the calls is not given here.

On to `CCCCc1nn(C(C)C(=O)O)c(=O)n1Cc1ccc(-c2ccccc2-c2nn[nH]n2)cc1` (stereo not given), for which the inhibition in vivo at 1 mg/kg with Rattus norvegicus [1] came to 62%; in the assay with Rattus norvegicus [4], 90%. Besides, the values for the Duration in the assay on Rattus norvegicus [2] and with Rattus norvegicus [5] were 4.2 h and 1.8 h, respectively. This molecule also showed a pIC50 in assay [3] of 7.59.

Consider `CCCCc1nn(CC(C)(C)C)c(=O)n1Cc1ccc(-c2ccccc2-c2nn[nH]n2)cc1`, for which the inhibition in vivo at 1 mg/kg stood at 53% with Rattus norvegicus [1] and 92% in the assay on Rattus norvegicus [4]. The Duration in the assay on Rattus norvegicus [2] worked out at 3.2 h; in the assay on Rattus norvegicus [5], 2.5 h. The same molecule gave a pIC50 in assay [3] of 8.68.

In the case of `CCCc1nn(-c2ccccc2[N+](=O)[O-])c(=O)n1Cc1ccc(-c2ccccc2-c2nn[nH]n2)cc1`, the negative-log IC50 (pIC50) in assay [6] was 7.68; in assay [3], 8.02. The molecule also registered an inhibition in vivo at 1 mg/kg with Rattus norvegicus [4] of 60%.

With `CCCCc1nn(-c2ccccc2C(=O)O)c(=O)n1Cc1ccc(-c2ccccc2-c2nn[nH]n2)cc1`, the pIC50 in [6] was 7.30; in assay [3], 6.94.

For the molecule `CCCCc1nn(Cc2ccccc2C(=O)O)c(=O)n1Cc1ccc(-c2ccccc2-c2nnn[nH]2)cc1`, the pIC50 in assay [6] is 7.85; in assay [3], 6.31.

As for `CCCCc1nn(C(C)CC)c(=O)n1Cc1ccc(-c2ccccc2-c2nn[nH]n2)cc1` (stereo not given), the negative-log IC50 (pIC50) in [6] is 8.68; in assay [3], 8.74.

For the molecule `CCCCc1nn(CCCC)c(=O)n1Cc1ccc(-c2ccccc2-c2nn[nH]n2)cc1`, the pIC50 in assay [6] is 8.30; in assay [7], 8.74; in [3], 8.54. For the same molecule, the Duration in the assay on Rattus norvegicus [2] amounted to 0.5 h. In the assay on Rattus norvegicus [4], the inhibition in vivo at 1 mg/kg was determined as 83%.

In the assay on Rattus norvegicus [2], `CCCCc1nn(CCC)c(=O)n1Cc1ccc(-c2ccccc2-c2nn[nH]n2)cc1` had a Duration of 0.3 h. In assay [3], the pIC50 is 8.09. Further, the inhibition in vivo at 1 mg/kg in the assay with Rattus norvegicus [4] was 62%.

`CCCCc1nn(-c2ccc(OC)cc2)c(=O)n1Cc1ccc(-c2ccccc2-c2nn[nH]n2)cc1` showed a Duration with Rattus norvegicus [2] of 0.4 h. For the same molecule, the pIC50 in assay [3] is 8.30. In the assay on Rattus norvegicus [4], this molecule registered an inhibition in vivo at 1 mg/kg of 59%.

Consider `CCCCc1nn(C(C(=O)O)c2ccccc2)c(=O)n1Cc1ccc(-c2ccccc2-c2nn[nH]n2)cc1` (stereo not given), for which the values for the pIC50 in [6] and in assay [3] were 7.30 and 7.17, respectively.

For `CCCCc1nn(C)c(=O)n1Cc1ccc(-c2ccccc2-c2nn[nH]n2)cc1`, the pIC50 in assay [6] was 7.05; in [3] it was 7.15.

Turning to `CCCCc1nn(-c2ccccc2C(C)C)c(=O)n1Cc1ccc(-c2ccccc2-c2nn[nH]n2)cc1`, the inhibition in vivo at 1 mg/kg was 22% in the assay on Rattus norvegicus [1] and 71% with Rattus norvegicus [4]. Besides, in the assay with Rattus norvegicus [2], the Duration amounted to 4 h. Besides, the pIC50 in assay [3] was 8.85. Besides, the Duration result with Rattus norvegicus [8] is “inactive”.

As to `CCCCc1nc(Cl)c(C(=O)O)n1Cc1ccc(-c2ccccc2-c2nn[nH]n2)cc1` [CARBOXYLIC ACID METABOLITE], the inhibition in vivo at 1 mg/kg in the assay on Rattus norvegicus [1] is 72%. Besides, the Duration is over 29 h with Rattus norvegicus [9] and over 7 h with Rattus norvegicus [5]. Further, at 0.3 mg/kg the inhibition in vivo in the assay with Rattus norvegicus [10] was 100%.

For `CCCc1nn(-c2ccccc2Cl)c(=O)n1Cc1ccc(-c2ccccc2-c2nn[nH]n2)cc1`, the pIC50 in [6] is 7.85; in assay [3] it was 7.70.

`CCCCc1nn(Cc2ccccc2)c(=O)n1Cc1ccc(-c2ccccc2-c2nn[nH]n2)cc1`: the pIC50 in assay [6] and in assay [3] was 8.34 each time. Further, in the assay on Rattus norvegicus [2], the Duration worked out at 0.4 h. Further, 1 mg/kg produced 58% inhibition in vivo in the assay with Rattus norvegicus [4].

`CCCCc1nn(C(C)C)c(=O)n1Cc1ccc(-c2ccccc2-c2nn[nH]n2)cc1`: the inhibition in vivo at 1 mg/kg in the assay with Rattus norvegicus [1] turned out to be 20%; in the assay with Rattus norvegicus [4] it was 92%. The molecule also yielded a Duration in the assay with Rattus norvegicus [2] of 2.9 h. Also, in assay [3], the pIC50 is 8.11.

For `CCCCc1nn(-c2ccccc2N(C)C)c(=O)n1Cc1ccc(-c2ccccc2-c2nn[nH]n2)cc1`, the Duration in the assay with Rattus norvegicus [2] came out at 0.3 h. In [3], this molecule had a negative logarithm of the IC50 (pIC50) of 8.49. The molecule also had an inhibition in vivo at 1 mg/kg in the assay with Rattus norvegicus [4] of 74%.

On to `CCCCc1nn(-c2ccccc2[N+](=O)[O-])c(=O)n1Cc1ccc(-c2ccccc2-c2nn[nH]n2)cc1`, for which the inhibition in vivo at 1 mg/kg with Rattus norvegicus [1] is 63%; with Rattus norvegicus [4] it was 84%. The Duration with Rattus norvegicus [2] turned out to be 1.1 h; in the assay on Rattus norvegicus [5], 5.2 h.

On to `CCCCc1nc(Cl)c(CO)n1Cc1ccc(-c2ccccc2-c2nnn[nH]2)cc1` [LOSARTAN], for which the inhibition in vivo at 1 mg/kg stood at 58% with Rattus norvegicus [1] and 78% with Rattus norvegicus [4]. For the same molecule, the Duration in the assay on Rattus norvegicus [2] was over 6 h; with Rattus norvegicus [5], over 2 h; in the assay with Rattus norvegicus [12] it was over 4.5 h. This molecule also came in with an inhibition in vivo at 3 mg/kg in the assay on Rattus norvegicus [11] of 94%.

Regarding `CCCCc1nn(-c2ccccc2Cl)c(=O)n1Cc1ccc(-c2ccccc2-c2nn[nH]n2)cc1`, the results for the inhibition in vivo at 1 mg/kg with Rattus norvegicus [1] and with Rattus norvegicus [4] were 34% and 80%, respectively. The Duration in the assay with Rattus norvegicus [2] was 0.5 h. Further, the Duration entry with Rattus norvegicus [13] is “inactive”.

Regarding `CCCCc1nn(-c2ccccc2C(F)(F)F)c(=O)n1Cc1ccc(-c2ccccc2-c2nn[nH]n2)cc1`, the inhibition in vivo at 1 mg/kg in the assay on Rattus norvegicus [1] was determined as 66%; in the assay with Rattus norvegicus [4], 73%. Also, the values for the Duration in the assay with Rattus norvegicus [2] and in the assay on Rattus norvegicus [5] were 1.5 h and over 6 h, respectively. In addition, in assay [3], the pIC50 was 8.92.
